According to US20220016154A1, “TREATMENT OF NEURONAL MOSAICISM IN DEMENTIA” (Crownview Medical Group, Inc., priority 2020, published 2022):

Legend:
[1] = system: patient with advanced dementia; experiment: Case report: dementia patient administered a regimen of ZDV (Retrovir), clinical observation and SMMSE; assay type: in vivo, human; settings: one patient, SMMSE 2 to 4 before treatment; after 8 weeks of treatment
[2] = system: HIV-associated dementia; settings: HIV patients, antiretroviral therapy; cited from earlier work

## Cc1cn([C@H]2C[C@H](N=[N+]=[N-])[C@@H](CO)O2)c(=O)[nH]c1=O [Zidovudine]
[1]
  SMMSE scores: not consistently improved
  ability to remember and communicate about where they lived: specific improvements in their ability to remember and communicate about where they lived
  alertness and awareness of surroundings: more alert and aware of their surroundings
[2]
  progression of HIV-associated dementia: slowed
